Data as given in paper PMC11643677, “In Silico Prediction of Alkaline Phosphatase Interaction with the Natural Inhibitory 5-Azaindoles Guitarrin C and D” (Molecules, 2024).
“Also recorded” adds a separate entry of the source.

How the values were obtained:
ALP = tested on: ALP; parameters: method as in PMID 25694083, PMID 37274413, PMID 36362051; conditions: standard inhibitory ligands of ALP ref 17-19; cited from earlier work
[1] = biological target: Vibrio splendidus alkaline phosphatase (VAP); parameters: method as in PMID 33102813; conditions: cited from earlier work
[2] = biological target: T1, alkaline phosphatase CmAP (Cobetia amphilecti, UniProt Q1W622); assay: Inhibitory activity assay and kinetics on alkaline phosphatase CmAP (pNPP hydrolysis); assay type: biochemical, Cobetia amphilecti KMM 296; conditions: for IC50: 2 mM pNPP, 0.1 M Tris-HCl pH 10.0, 0.2 M KCl, 37 °C, 60 min preincubation, mean of three ± SD; for residual activity: at maximum inhibition; for Ki: by the Cheng–Prusoff formula Ki = IC50/(1 + [S]/Km); for type of inhibition: pNPP substrate; for Vmax in the presence of inhibitor: pNPP, guitarrin C 52.0 µM, guitarrin D 96.0 µM, 60 min preincubation at 23 °C, without inhibitor 5.98 ± 0.03
T1 sequence (Q1W622 entry or part of it): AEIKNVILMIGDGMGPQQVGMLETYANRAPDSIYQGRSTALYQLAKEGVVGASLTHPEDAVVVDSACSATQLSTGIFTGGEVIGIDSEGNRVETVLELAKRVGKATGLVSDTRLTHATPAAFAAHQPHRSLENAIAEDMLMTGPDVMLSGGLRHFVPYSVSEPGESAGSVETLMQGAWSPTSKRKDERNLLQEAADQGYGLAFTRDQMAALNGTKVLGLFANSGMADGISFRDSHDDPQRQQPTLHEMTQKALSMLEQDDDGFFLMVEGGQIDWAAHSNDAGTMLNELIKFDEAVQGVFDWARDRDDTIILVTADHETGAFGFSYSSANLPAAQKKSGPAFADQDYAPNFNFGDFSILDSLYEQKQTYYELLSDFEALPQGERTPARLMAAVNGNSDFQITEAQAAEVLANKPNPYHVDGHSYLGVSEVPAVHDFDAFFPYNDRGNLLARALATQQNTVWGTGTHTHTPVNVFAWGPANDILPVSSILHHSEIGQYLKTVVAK
Method: (§1) The enzymatic activity was evaluated through the addition of 5 μL of the protein solution sample to a solution of 495 μL buffer, comprising 0.1 M Tris-HCl (pH 10.0), 0.2 M KCl, and 2 mM pNPP. The reaction mixture was incubated at 37 °C for a period of 30 min. To halt the reaction, 2 mL of chilled 0.5 M NaOH was introduced. The quantity of p-nitrophenol (pNP) produced was quantified spectrophotometrically at a wavelength of 400 nm, with the control sample, which lacked the enzyme, serving as a reference point. The specific activity was calculated using the following formula: (2.5 × OD400)/(18.6 × 0.005 × t × C), where OD400 is the optical density at a wavelength of 400 nm, 2.5 is the volume of the reaction mixture in mL, 18.6 is the extinction coefficient of pNP (M^−1/cm^−1), t is the incubation time at 37 °C in minutes, 0.005 is the sample volume in mL, and C is the protein concentration in the sample (mg/mL). The quantity of enzyme required for the generation of 1 µM pNP within a one-minute period was established as the unit of activity.
(§2) The effect of the natural inhibitors guitarrins C and D [33] on the activity of the alkaline phosphatases CmAP from C. amphilecti KMM 296 and calf intestinal alkaline phosphatase (CIAP, Invitrogen™ 18009019, Thermo Fisher Scientific, Waltham, MA, USA) was investigated in a buffer containing 0.1 M tris-HCl (pH 10.0) with 0.2 KCl. […] The activity of ALPs was determined using the standard method described above. CmAP (3.22 mg/mL, 2929 U/mg) and CIAP (0.99 mg/mL, 647 U/mg) were dissolved in 50 mM tris-HCl (pH 8.0) buffer with 2 mM MgCl2. Results were presented as the percentage of inhibition relative to control activity. The IC50 for each compound tested was defined as the concentration of compound that inhibited the enzyme activity by 50%. IC50 values are given as the mean of three experiments and standard deviation.
(§3) The kinetic parameters (Km and Vmax) were determined for alkaline phosphatases CmAP and CIAP. The mean Km values and standard deviations were presented. […] The inhibition constant, Ki, was determined using the Cheng–Prusoff formula [51]. The binding activity of the inhibitor to the reactive substrate (Ki) can be calculated using the following formula: Ki = IC50/(1 + [S]/Km), where IC50 is the functional activity of the inhibitor, [S] is the concentration of the reactive substrate, and KM is the Michaelis constant. The results were presented in the Origin 7.0 software.

[3] = biological target: T2, calf intestinal alkaline phosphatase (CIAP) (Bos taurus, UniProt P19111); assay: Inhibitory activity assay on calf intestinal alkaline phosphatase (pNPP hydrolysis); assay type: biochemical; conditions: for IC50: 2 mM pNPP, 0.1 M Tris-HCl pH 10.0, 0.2 M KCl, 37 °C, 60 min preincubation, mean of three ± SD; for Ki: by the Cheng–Prusoff formula Ki = IC50/(1 + [S]/Km)
T2 construct: purchased Invitrogen, Thermo Fisher Scientific 18009019
T2 sequence (P19111 20-506 limits assumed): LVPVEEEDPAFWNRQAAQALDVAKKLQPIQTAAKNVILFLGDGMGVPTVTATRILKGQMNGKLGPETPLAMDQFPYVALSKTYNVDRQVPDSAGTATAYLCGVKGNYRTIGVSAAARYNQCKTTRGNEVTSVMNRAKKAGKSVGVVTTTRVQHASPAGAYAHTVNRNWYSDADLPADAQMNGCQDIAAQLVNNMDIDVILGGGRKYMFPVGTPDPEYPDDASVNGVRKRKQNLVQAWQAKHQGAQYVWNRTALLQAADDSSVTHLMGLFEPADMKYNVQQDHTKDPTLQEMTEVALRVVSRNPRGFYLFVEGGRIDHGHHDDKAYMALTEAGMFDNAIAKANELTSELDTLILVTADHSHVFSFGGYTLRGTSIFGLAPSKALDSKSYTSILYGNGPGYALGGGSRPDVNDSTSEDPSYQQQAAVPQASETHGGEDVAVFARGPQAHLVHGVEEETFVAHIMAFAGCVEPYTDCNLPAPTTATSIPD
Method: as §1, §2, §3

[4] = biological target: T1, alkaline phosphatase CmAP; parameters: method as in PMID 31181923; conditions: cited from earlier work; for affinity relative to the chelator EDTA: CmAP, higher affinity than EDTA ref 33; for inhibitory activity against CmAP: previous study ref 33

## N[C@@H](Cc1ccccc1)C(=O)O [L-phenylalanine]
ALP
  IC50: 80 µM

## NC1CCCCC1 [cyclohexylamine]
[1]; VAP ref 27
  IC50: 35700 µM
  Michaelis–Menten constant in the presence of inhibitor (unchanging): 195 ± 4 µM
  type of inhibition: non-competitive
[1]; VAP, Ki equal to IC50 ref 27
  Ki: 35700 µM

## O=C(O)c1cc2[nH]ccc2c(CO)n1 [guitarrin C]
[2]
  maximum inhibition of activity: 85%
  IC50: 8.5 ± 0.08 µM
  residual activity: 15%
  Ki: 1.58 ± 0.04 µM
  type of inhibition: non-competitive
  Vmax in the presence of inhibitor: 2.62 ± 0.02 U mL^−1
[2]; more active
  activity relative to guitarrin D: 10 fold
[3]
  maximum inhibition of activity: 57%
  IC50: 195 ± 2.2 µM
  Ki: 38 ± 0.1 µM
[3]; pNPP substrate
  type of inhibition: non-competitive
[4]
  affinity relative to the chelator EDTA: 1000 fold
  inhibitory activity against CmAP: pronounced inhibitory activity

## O=C(O)c1nc(CO)c2cc[nH]c2c1O [guitarrin D]
[2]
  maximum inhibition of activity: 85%
  IC50: 110 ± 0.8 µM
  residual activity: 15%
  Ki: 20.56 ± 0.06 µM
  type of inhibition: mixed type of inhibition
  Vmax in the presence of inhibitor: 3.98 ± 0.02 U mL^−1
[2]; with versus without inhibitor
  decrease in Vmax: more than 2 fold
[3]
  difference in inhibitory activity compared to guitarrin C: 1.2 fold
  maximum inhibition of activity: 57%
  IC50: 230 ± 1.6 µM
  Ki: 45 ± 0.2 µM
[4]
  affinity relative to the chelator EDTA: 100 fold
  inhibitory activity against CmAP: pronounced inhibitory activity

## c1ccc([C@H]2CN3CCSC3=N2)cc1 [levamisole]
ALP
  IC50: 19 µM

## Cn1c(=O)c2[nH]cnc2n(C)c1=O [theophylline]
ALP
  IC50: 47 µM
  Ki: 91 µM

## guitarrin A
[4]
  inhibitory activity against CmAP: no inhibitory activity; also recorded: non-inhibitory

## guitarrin E
[4]
  inhibitory activity against CmAP: no inhibitory activity; also recorded: non-inhibitory
